Measured values taken from patent US20120329798A1, “METHODS AND COMPOSITIONS FOR TREATING LUEKEMIA” (priority 2009, published 2012).
Counter-ions that a name gives are not always drawn.

Columns and labels:
[1] = system: primary CD34+ CP CML cells; test: Colony forming assay and serial re-plating of primary CML cells; format: cell-based, human; settings: for proliferation index (PI) of re-plated colonies (AUC): 3d nilotinib and/or compound A exposure, 132 colonies per arm, compared to untreated cells, FIG. 7
Description: Primary cells were obtained from newly diagnosed and untreated patients with CML in chronic phase. These cells were enriched for CD34+using magnetic-activated cell sorting prior to cryopreservation in 10% DMSO and 4% human albumin solution in liquid nitrogen. Samples were thawed and washed in a solution of DNAse, human albumin solution, magnesium chloride, and phosphate buffered saline. Upon thaw primary cells were cultured in a serum free medium comprising of Iscove's Modified Dulbecco Medium with bovine serum albumin, insulin, transferring, P2 mercaptoethanol and growth factors (100 ng/mL Flt3-ligand, 100 ng/mL stem cell factor, 20 ng/mL interleukin (IL)-3, IL-6 and 50 ng/mL granulocyte-colony stimulating factor) for 24 hours.
Viable cells were enumerated using trypan blue dye exclusion and set up in culture in serum free medium (SFM) with the stated concentrations of Compound A and/or nilotinib. Following 72 hours (h) culture the cells were washed twice in phosphate buffered solution (PBS) and viable cells counted, again by trypan blue exclusion. These cells were then used for a series of colony forming and re-plating assays.
In the colony forming assay (CFA) a single cell suspension is created in semisolid media with appropriate cytokines. This enables the assessment of colony formation from each individual cell. In order to measure the effect of compound A and/or nilotinib on the relative abundance of CD34+ CP CML progenitor cells, CFA were set up in METHOCULT with cells plated at an initial concentration of 4000 cells per mL in duplicate. Colonies were identified and enumerated 14-16 days (d) following plating.
An accepted in vitro technique to approximate self-renewal activity is serial re-plating. Colonies derived from a CFA are individually plucked and re-dispersed in further METHOCULT. The capacity to reform colonies following re-dispersion is related to the number of primitive progenitors remaining within each individual colony and is therefore an indirect measurement of self-renewal. Following CFA 20-30 individual non-erythroid colonies from each experimental arm were then plucked with a p10 pipettor (one tip per colony using an inverted microscope) and carefully dispersed into 100 μL METHOCULT with a further 10 μL SFM in 96 well plates prior to incubation for a further 7d. Resultant secondary colonies were enumerated in each well and; in the case of wells containing secondary colonies; the entire contents were re-dispersed in a further 100 μL METHOCULT to assess tertiary colony formation.
Colony assays were performed in METHOCULT with cells plated at an initial concentration of 4000 cells per mL in duplicate. Colonies were identified and enumerated 14-16 days (d) following plating. […]

[2] = system: bone marrow transplant model of Bcr-Abl to induce CML in mice; test: Bone marrow transplant model of Bcr-Abl induced CML, survival; format: in vivo, mouse; settings: groups of 8 mice; two week treatment; compound A 80 mg/kg po qd, AMN107 75 mg/kg po qd or combination; FIG. 10
Description: A bone marrow transplant model of Bcr-Abl was used to induce CML in mice. Briefly, a bicistronic retroviral Bcr-Abl vector (Bcr-Abl-IRES-GFP) was used to produce virus to infect progenitor bone marrow (BM) cells collected from mice previously treated with 5-FU. After 3 rounds of infection, 200,000 GFP positive progenitor BM cells were transplanted into lethally irradiated hosts. Two weeks post-BMT, peripheral blood samples were analyzed by FACS analysis to establish the percentage of GFP positive cells present in the recipient mice. […] During the entire study period the mice were followed for any sign of leukemia development, such as hunched position, lost of body weight or inability of grooming. The animals were sacrificed when they reached any of the previously described signs.

[3] = system: mouse bone marrow cells infected with Bcr-abl retrovirus; test: Methylcellulose colony formation and re-plating of Bcr-Abl infected bone marrow cells; format: cell-based; settings: 72 h pre-treatment; for colony formation in the first methylcellulose plating: compared to control DMSO group, FIG. 8
Text: Colony formation was scored 10 days after plating.
FIG. 9. Colonies obtained in the 1st plating experiment of FIG. 8 were resuspended and washed in PBS containing 10% FCS. Cells were resuspended in OPTI-MEM media and plated in methylcellulose at a concentration of 5000 cells per 35 mm plate. Colony formation was scored 10 days after plating.
Mouse bone marrow cells were infected with a bicistronic retroviral Bcr-Abl vector (Bcr-Abl-IRES-GFP). […] Clonogenic colony formation assays assess the self-renewal capacity of early progenitor/stem cells.

CML = settings: standard of therapy for CML; cited from earlier work

Row | SMILES | re-plating capacity (total number of secondary colonies) ([1]; 3d exposure, Compound A 10 nM and/or nilotinib 5 μM, 4 experiments, FIG. 6) | proliferation index (PI) of re-plated colonies (AUC) ([1]; 4 experiments) | number of animals sacrificed to date [2] | colony formation in the first methylcellulose plating [3] | response rates (CML) | re-plating capacity (total secondary and tertiary colonies as percentage of untreated control) ([1]; 72 h culture with drug, first and second re-plate, FIG. 1 and 2) | colony number upon secondary re-plating of the colonies ([3]; FIG. 9)
1 | Cc1cn(-c2cc(NC(=O)c3ccc(C)c(Nc4nccc(-c5cccnc5)n4)c3)cc(C(F)(F)F)c2)cn1 [nilotinib] | non-significant increase in re-plating capacity | relative increase in PI | 5 | No reduction of colony formation |  |  | 
2 | Cc1ccc(NC(=O)c2ccc(CN3CCN(C)CC3)cc2)cc1Nc1nccc(-c2cccnc2)n1 [Imatinib mesylate] |  |  |  |  | more than 96% |  | 
3 | Cc1c(C(=O)Nc2ccc(N3C[C@@H](C)O[C@@H](C)C3)nc2)cccc1-c1ccc(OC(F)(F)F)cc1 [Compound A, 2-Methyl-4′-trifluoromethoxy-biphenyl-3-carboxylic acid [6-(cis-2,6-dimethyl-morpholin-4-yl)-pyridin-3-yl]-amide] |  | reduction in PI | all | No reduction of colony formation |  | reduction in re-plating capacity | pronounced reduction in colony number
